Measured values published in patent US12528761B2, “Thyromimetics” (Autobahn Therapeutics, Inc., priority 2020, dated 2026).
pEC50: −log10 of the molar value.

Tests used:
TRα = target: T1, TRα (Homo sapiens, UniProt P10827); assay: TR reporter-gene assay (Gal4 DBD hybrid, luciferase), TRα; assay type: cell-based; details: HEK293-derived reporter cells, 24 hr treatment; read-out: TRα EC50
T1 construct: expressed in transfected cells; host or cells: HEK293
T1 sequence (P10827 1-410 isoform P10827-2): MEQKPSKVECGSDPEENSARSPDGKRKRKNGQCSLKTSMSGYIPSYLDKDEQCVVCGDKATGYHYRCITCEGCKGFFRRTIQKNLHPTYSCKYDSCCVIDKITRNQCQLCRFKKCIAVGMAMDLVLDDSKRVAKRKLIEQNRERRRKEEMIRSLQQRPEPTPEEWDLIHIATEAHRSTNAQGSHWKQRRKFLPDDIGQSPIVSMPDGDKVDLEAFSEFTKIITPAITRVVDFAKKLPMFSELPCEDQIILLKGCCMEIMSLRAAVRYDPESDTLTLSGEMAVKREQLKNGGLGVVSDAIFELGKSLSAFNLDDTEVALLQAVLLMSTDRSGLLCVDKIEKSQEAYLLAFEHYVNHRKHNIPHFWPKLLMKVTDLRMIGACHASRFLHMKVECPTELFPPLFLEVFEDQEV
Outline: (§1)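 HEK293 reporter cells expressing Gal4-DBD/TR ligand-binding hybrids driving firefly luciferase from a Gal4 UAS; cells pre-incubated 6 h, then treated 24 h at 37 °C in medium with 10% charcoal-stripped FBS (final DMSO 0.1–0.4%), in duplicate. Read-out was luminescence (RLU).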

TRβ = target: T2, TRβ (Homo sapiens, UniProt P10828); assay: TR reporter-gene assay (Gal4 DBD hybrid, luciferase), TRβ; assay type: cell-based; details: for pEC50: HEK293-derived reporter cells, 24 hr treatment, read-out: TRβ EC50; for T3-SI (selectivity index, EC50 (TRα)/EC50 (TRβ)): class symbols
T2 construct: expressed in transfected cells; host or cells: HEK293
T2 sequence (P10828 217-461 limits assumed): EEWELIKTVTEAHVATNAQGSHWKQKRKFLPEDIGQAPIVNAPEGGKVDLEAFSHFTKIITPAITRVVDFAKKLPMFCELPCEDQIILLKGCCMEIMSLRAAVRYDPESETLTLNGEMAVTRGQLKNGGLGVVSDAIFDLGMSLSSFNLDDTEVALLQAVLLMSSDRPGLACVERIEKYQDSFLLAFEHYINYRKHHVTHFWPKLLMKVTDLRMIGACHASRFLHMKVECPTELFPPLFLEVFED
Outline: as §1

SMILES | pEC50 (TRα) | pEC50 (TRβ) | T3-SI (selectivity index, EC50 (TRα)/EC50 (TRβ)) (TRβ)
CC(C)c1c(O)ccc(Cc2c(Cl)cc(CC(N)C(=O)O)cc2Cl)c1F (stereo not drawn) [Compound 207, 2-amino-3-(3,5-dichloro-4-(2-fluoro-4-hydroxy-3-isopropylbenzyl)phenyl)propanoic acid] | < 6.00 | 6.00 to 7.00 | + (T3-SI ≤ 3×)
Cc1cc(CS(=O)(=O)CC(=O)O)cc(Cl)c1Cc1ccc(O)c(C(C)C)c1 [Compound 245, 2-((3-chloro-4-(4-hydroxy-3-isopropylbenzyl)-5-methylbenzyl)sulfonyl)acetic acid] | < 6.00 | < 6.00 | ++ (3× < T3-SI ≤ 30×)
CC(C)c1c(O)ccc(Cc2c(Cl)cc(OCCCC(=O)O)cc2Cl)c1F [Compound 52, 4-(3,5-dichloro-4-(2-fluoro-4-hydroxy-3-isopropylbenzyl)phenoxy)butanoic acid] | 6.00 to 7.00 | 6.00 to 7.00 | + (T3-SI ≤ 3×)
CC(C)c1cc(Cc2c(Cl)cc([S+]([O-])CC(=O)O)cc2Cl)ccc1O (stereo not drawn) [Compound 92, 2-((3,5-dichloro-4-(4-hydroxy-3-isopropylbenzyl)phenyl)sulfinyl)acetic acid] | < 6.00 | < 6.00 | +++ (T3-SI > 30×)
CC(C)c1c(O)ccc(Cc2c(Cl)cc(CC3NC(=O)NC3=O)cc2Cl)c1F (stereo not drawn) [Compound 206, 5-(3,5-dichloro-4-(2-fluoro-4-hydroxy-3-isopropylbenzyl)benzyl)imidazolidine-2,4-dione] | < 6.00 | < 6.00 | +++ (T3-SI > 30×)
CCOC(=O)/C(=C\c1cc(Cl)c(Cc2ccc(O)c(C(C)C)c2)c(Cl)c1)C(=O)O [Compound 90, 3-(3,5-dichloro-4-(4-hydroxy-3-isopropylbenzyl)phenyl)-2-(ethoxycarbonyl)acrylic acid] | < 6.00 | < 6.00 | ++ (3× < T3-SI ≤ 30×)
Cc1c(F)c(SCC(=O)O)cc(Cl)c1Cc1ccc(O)c(C(C)C)c1 [Compound 227, 2-((5-chloro-2-fluoro-4-(4-hydroxy-3-isopropylbenzyl)-3-methylphenyl)thio)acetic acid] | 6.00 to 7.00 | 6.00 to 7.00 | ++ (3× < T3-SI ≤ 30×)
CC(C)c1cc(Cc2c(Cl)cc(CC3NC(=O)NC3=O)cc2Cl)ccc1O (stereo not drawn) [Compound 144, 5-(3,5-dichloro-4-(4-hydroxy-3-isopropylbenzyl)benzyl)imidazolidine-2,4-dione] | 6.00 to 7.00 | < 6.00 | + (T3-SI ≤ 3×)

Now from value to compound:

pEC50 (TRα) | pEC50 (TRβ) | T3-SI (selectivity index, EC50 (TRα)/EC50 (TRβ)) (TRβ) | SMILES
6.00 to 7.00 | 7.00 to 8.00 | ++ (3× < T3-SI ≤ 30×) | Cc1cc(CC(=O)O)cc(C)c1Cc1ccc(O)c(C(C)c2ccc(F)cc2)c1 (stereo not drawn) [Compound 2, 2-(4-(3-(1-(4-fluorophenyl)ethyl)-4-hydroxybenzyl)-3,5-dimethylphenyl)acetic acid]
7.00 to 8.00 | 7.00 to 8.00 | ++ (3× < T3-SI ≤ 30×) | CONC(=O)CCc1cc(Cl)c(Cc2ccc(O)c(C(C)C)c2F)c(Cl)c1 [Compound 106, 3-(3,5-dichloro-4-(2-fluoro-4-hydroxy-3-isopropylbenzyl)phenyl)-N-methoxypropanamide]
7.00 to 8.00 | 7.00 to 8.00 | ++ (3× < T3-SI ≤ 30×) | CC(C)c1cc(Cc2c(Cl)cc(/C=C/CC(=O)O)cc2Cl)ccc1O [Compound 15, (E)-4-(3,5-dichloro-4-(4-hydroxy-3-isopropylbenzyl)phenyl)but-3-enoic acid]
6.00 to 7.00 | 6.00 to 7.00 | ++ (3× < T3-SI ≤ 30×) | CON(C)C(=O)CCc1cc(Cl)c(Cc2ccc(O)c(C(C)C)c2F)c(Cl)c1 [Compound 107, 3-(3,5-dichloro-4-(2-fluoro-4-hydroxy-3-isopropylbenzyl)phenyl)-N-methoxy-N-methylpropanamide]
6.00 to 7.00 | 6.00 to 7.00 | + (T3-SI ≤ 3×) | CC(C)c1cc(Cc2c(Cl)cc(OCCCCC(=O)O)cc2Cl)ccc1O [Compound 26, 5-(3,5-dichloro-4-(4-hydroxy-3-isopropylbenzyl)phenoxy)pentanoic acid]
7.00 to 8.00 | 6.00 to 7.00 | + (T3-SI ≤ 3×) | CC(C)c1c(O)ccc(Cc2c(Cl)cc(CNCC(=O)O)cc2Cl)c1F [Compound 110, (3,5-dichloro-4-(2-fluoro-4-hydroxy-3-isopropylbenzyl)benzyl)glycine]
6.00 to 7.00 | 6.00 to 7.00 | ++ (3× < T3-SI ≤ 30×) | CC(C)c1cc(Cc2c(Cl)cc(OC(F)C(=O)O)cc2Cl)ccc1O (stereo not drawn) [Compound 81, 2-(3,5-dichloro-4-(4-hydroxy-3-isopropylbenzyl)phenoxy)-2-fluoroacetic acid]
7.00 to 8.00 | 7.00 to 8.00 | ++ (3× < T3-SI ≤ 30×) | Cc1c(F)c(NCC(=O)O)cc(Cl)c1Cc1ccc(O)c(C(C)C)c1 [Compound 223, (5-chloro-2-fluoro-4-(4-hydroxy-3-isopropylbenzyl)-3-methylphenyl)glycine]
7.00 to 8.00 | 7.00 to 8.00 | ++ (3× < T3-SI ≤ 30×) | CC(C)c1cc(Cc2c(Cl)cc(CCC(=O)O)cc2Cl)ccc1O [Compound 11, 3-(3,5-dichloro-4-(4-hydroxy-3-isopropylbenzyl)phenyl)propanoic acid]
